Experimental data published in ChEMBL document CHEMBL2074202, “Biliary excretion of pravastatin in rats: contribution of the excretion pathway mediated by canalicular multispecific organic anion transporter” (Drug Metab Dispos, 1997).

B1: ATP-binding cassette sub-family C member 2 (Rattus norvegicus) (protein)
chain: MDKFCNSTFWDLSLLESPEADLPLCFEQTVLVWIPLGFLWLLAPWQLYSVYRSRTKRSSITKFYLAKQVFVVFLLILAAIDLSLALTEDTGQATVPPVRYTNPILYLCTWLLVLAVQHSRQWCVRKNSWFLSLFWILSVLCGVFQFQTLIRALLKDSKSNMAYSYLFFVSYGFQIVLLILTAFSGPSDSTQTPSVTASFLSSITFSWYDRTVLKGYKHPLTLEDVWDIDEGFKTRSVTSKFEAAMTKDLQKARQAFQRRLQKSQRKPEATLHGLNKKQSQSQDVLVLEEAKKKSEKTTKDYPKSWLIKSLFKTFHVVILKSFILKLIHDLLVFLNPQLLKLLIGFVKSSNSYVWFGYICAILMFAVTLIQSFCLQSYFQHCFVLGMCVRTTVMSSIYKKALTLSNLARKQYTIGETVNLMSVDSQKLMDATNYMQLVWSSVIQITLSIFFLWRELGPSILAGVGVMVLLIPVNGVLATKIRNIQVQNMKNKDKRLKIMNEILSGIKILKYFAWEPSFQEQVQGIRKKELKNLLRFGQLQSLLIFILQITPILVSVVTFSVYVLVDSANVLNAEKAFTSITLFNILRFPLSMLPMVTSSILQASVSVDRLERYLGGDDLDTSAIRRVSNFDKAVKFSEASFTWDPDLEATIQDVNLDIKPGQLVAVVGTVGSGKSSLVSAMLGEMENVHGHITIQGSTAYVPQQSWIQNGTIKDNILFGSEYNEKKYQQVLKACALLPDLEILPGGDMAEIGEKGINLSGGQKQRVSLARAAYQDADIYILDDPLSAVDAHVGKHIFNKVVGPNGLLAGKTRIFVTHGIHFLPQVDEIVVLGKGTILEKGSYRDLLDKKGVFARNWKTFMKHSGPEGEATVNNDSEAEDDDDGLIPTMEEIPEDAASLAMRRENSLRRTLSRSSRSSSRRGKSLKNSLKIKNVNVLKEKEKEVEGQKLIKKEFVETGKVKFSIYLKYLQAVGWWSILFIILFYGLNNVAFIGSNLWLSAWTSDSDNLNGTNNSSSHRDMRIGVFGALGLAQGICLLISTLWSIYACRNASKALHGQLLTNILRAPMRFFDTTPTGRIVNRFSGDISTVDDLLPQTLRSWMMCFFGIAGTLVMICMATPVFAIIIIPLSILYISVQVFYVATSRQLRRLDSVTKSPIYSHFSETVTGLPIIRAFEHQQRFLAWNEKQIDINQKCVFSWITSNRWLAIRLELVGNLVVFCSALLLVIYRKTLTGDVVGFVLSNALNITQTLNWLVRMTSEAETNIVAVERISEYINVENEAPWVTDKRPPADWPRHGEIQFNNYQVRYRPELDLVLKGITCNIKSGEKVGVVGRTGAGKSSLTNCLFRILESAGGQIIIDGIDVASIGLHDLRERLTIIPQDPILFSGSLRMNLDPFNKYSDEEVWRALELAHLRSFVSGLQLGLLSEVTEGGDNLSIGQRQLLCLGRAVLRKSKILVLDEATAAVDLETDSLIQTTIRKEFSQCTVITIAHRLHTIMDSDKIMVLDNGKIVEYGSPEELLSNRGSFYLMAKEAGIENVNHTEL

Assays:
[1] = target: ATP-binding cassette sub-family C member 2 (Rattus norvegicus, UniProt Q63120); assay: TP_TRANSPORTER: inhibition of DNP-SG uptake in bile canalicular membrane vesicles from SD rat; assay type: functional, cell membranes, Sprague-Dawley, Bile canalicular membrane vesicle
[2] = substrate: CC[C@H](C)C(=O)O[C@H]1C[C@H](O)C=C2C=C[C@H](C)[C@H](CC[C@@H](O)C[C@@H](O)CC(=O)O)[C@H]21; assay: TP_TRANSPORTER: uptake in bile canalicular membrane vesicles from SD rat; assay type: functional, cell membranes, Sprague-Dawley, Bile canalicular membrane vesicle

Molecule	Ki [1] [µM]	Km [2] [µM]
CC[C@H](C)C(=O)O[C@H]1C[C@H](O)C=C2C=C[C@H](C)[C@H](CC[C@@H](O)C[C@@H](O)CC(=O)O)[C@H]21 [PRAVASTATIN]	172	
B1		223
